US20240116985A1, “STAPLED PEPTIDES AND METHODS THEREOF” (priority 2020, published 2024)

Assays:
[1] = target: T1, full-length beta-Catenin (Uniprot ID P35222) (Homo sapiens, UniProt P35222); assay: Fluorescence polarization IC50 (beta-catenin / 5FAM-TCF4 10-53 competition); format: binding; settings: fluorescence polarization; read-out: beta-Catenin FP IC50
T1 construct: 10 nM full-length beta-Catenin (Uniprot ID P35222)
T1 sequence (P35222 1-781): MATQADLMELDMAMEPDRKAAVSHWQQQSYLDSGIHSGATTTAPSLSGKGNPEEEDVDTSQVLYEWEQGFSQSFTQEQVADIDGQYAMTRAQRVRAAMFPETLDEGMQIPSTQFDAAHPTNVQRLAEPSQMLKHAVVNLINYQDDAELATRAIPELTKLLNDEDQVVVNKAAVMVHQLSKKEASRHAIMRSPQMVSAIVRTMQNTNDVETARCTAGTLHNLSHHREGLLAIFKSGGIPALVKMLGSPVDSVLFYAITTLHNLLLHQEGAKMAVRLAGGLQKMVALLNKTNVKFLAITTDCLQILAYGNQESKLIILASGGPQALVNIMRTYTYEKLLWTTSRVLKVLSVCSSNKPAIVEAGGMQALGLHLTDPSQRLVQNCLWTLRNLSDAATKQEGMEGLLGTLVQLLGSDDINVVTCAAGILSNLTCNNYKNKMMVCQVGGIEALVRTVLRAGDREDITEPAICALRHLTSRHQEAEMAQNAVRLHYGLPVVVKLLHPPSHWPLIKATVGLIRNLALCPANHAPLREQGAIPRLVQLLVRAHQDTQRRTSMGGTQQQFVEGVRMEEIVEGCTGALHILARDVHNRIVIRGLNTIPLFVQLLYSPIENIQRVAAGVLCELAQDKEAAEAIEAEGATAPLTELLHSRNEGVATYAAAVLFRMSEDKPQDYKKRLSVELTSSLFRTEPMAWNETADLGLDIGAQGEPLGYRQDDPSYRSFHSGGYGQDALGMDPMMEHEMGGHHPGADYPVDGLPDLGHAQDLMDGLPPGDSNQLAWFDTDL

[2] = target: T2, beta-catenin/TCF4 engagement (Homo sapiens, UniProt P35222); assay: Nano-BRET target engagement assay (B-cat-Halo & TCF4-Luc in HEK293 cells); format: cell-based; settings: absolute IC50; read-out: NanoBRET Abs IC50
T2 construct: expressed in transfected cells; host or cells: HEK293
T2 sequence (P35222 1-781): T1 sequence (P35222 1-781)

SMILES | IC50 [1] [nM] | IC50 [2] [nM]
CC(=O)N1CCC[C@]12CC=CCCCC1(CCCC=CCCCOC(=O)N3CC[C@@](C(=O)N[C@@H](Cc4ccsc4)C(=O)N[C@@H](Cc4csc5ccccc45)C(=O)N[C@@H](CCC(N)=O)C(N)=O)(C3)NC(=O)[C@H](CC(N)=O)NC(=O)[C@H](Cc3ccccc3)NC(=O)[C@H](C)NC(=O)[C@H](C)NC(=O)[C@H](CNCC(=O)O)NC(=O)[C@H](CC(=O)O)NC1=O)NC(=O)[C@H](CC(C)(C)C)NC(=O)[C@H](CC(=O)O)NC2=O (stereo partly drawn) [I-1733, Ac-PL3-Asp-Npg-B5-Asp-GA-Ala-Ala-Phe-Asn-PyrS2-3Thi-BztA-Gln-NH2] | 15 | > 20000
CC(=O)N1CCC[C@]12CC=CCCCC1(CCCC=CCCCOC(=O)N3CC[C@@](C(=O)N[C@@H](Cc4ccsc4)C(=O)N[C@@H](Cc4csc5ccccc45)C(=O)N[C@@H](CC(C)C)C(N)=O)(C3)NC(=O)[C@H](CC(C)C)NC(=O)[C@H](Cc3ccccc3)NC(=O)[C@H](C)NC(=O)[C@H](C)NC(=O)[C@H](CN(CC(=O)O)CC(F)(F)F)NC(=O)[C@H](CC(=O)O)NC1=O)NC(=O)[C@H](CC(C)(C)C)NC(=O)[C@H](CC(=O)O)NC2=O (stereo partly drawn) [I-1747, Ac-PL3-Asp-Npg-B5-Asp-TfeGA-Ala-Ala-Phe-Leu-PyrS2-3Thi-BztA-Leu-NH2] | 187 | > 20000
CC(=O)N1CCC[C@]12CC=CCCCC1(CCCC=CCCCOC(=O)N3CC[C@@](C(=O)N[C@@H](Cc4ccsc4)C(=O)N[C@@H](Cc4csc5ccccc45)C(=O)N[C@@H](CC(C)C)C(N)=O)(C3)NC(=O)[C@H](CC(C)C)NC(=O)[C@H](Cc3ccccc3)NC(=O)[C@H](C)NC(=O)[C@H](C)NC(=O)[C@H](CN(CC(=O)O)CC(F)(F)F)NC(=O)[C@H](CC(=O)O)NC1=O)NC(=O)[C@H](CC(C)(C)C)NC(=O)[C@H](CC(=O)O)NC2=O (stereo partly drawn) [I-1748, Ac-PL3-Asp-Npg-B5-Asp-TfeGA-Ala-Ala-Phe-Leu-PyrS2-3Thi-BztA-Leu-NH2] | 141 | 20200
CC(=O)N1CCC[C@]12CC=CCCCC1(CCCC=CCCCOC(=O)N3CC[C@@](C(=O)N[C@@H](Cc4ccsc4)C(=O)N[C@@H](Cc4csc5ccccc45)C(=O)N[C@@H](Cc4ccccc4)C(N)=O)(C3)NC(=O)[C@H](CC(C)C)NC(=O)[C@H](Cc3ccccc3)NC(=O)[C@H](C)NC(=O)[C@H](C)NC(=O)[C@H](CN(CC(=O)O)CC(F)(F)F)NC(=O)[C@H](CC(=O)O)NC1=O)NC(=O)[C@H](CC(C)(C)C)NC(=O)[C@H](CC(=O)O)NC2=O (stereo partly drawn) [I-1750, Ac-PL3-Asp-Npg-B5-Asp-TfeGA-Ala-Ala-Phe-Leu-PyrS2-3Thi-BztA-Phe-NH2] | 104 | 23700
CC(=O)N1CCC[C@]12CC=CCCCC1(CCCC=CCCCOC(=O)N3CC[C@@](C(=O)N[C@@H](Cc4ccsc4)C(=O)N[C@@H](Cc4csc5ccccc45)C(=O)N[C@@H](CC(C)C)C(N)=O)(C3)NC(=O)[C@H](CC(C)C)NC(=O)[C@H](Cc3ccccc3)NC(=O)[C@H](C)NC(=O)[C@H](CCCCNC(C)C)NC(=O)[C@H](CN(CC(=O)O)CC(F)(F)F)NC(=O)[C@H](CC(=O)O)NC1=O)NC(=O)[C@H](CC(C)(C)C)NC(=O)[C@H](CC(=O)O)NC2=O (stereo partly drawn) [I-1759, Ac-PL3-Asp-Npg-B5-Asp-TfeGA-iPrLys-Ala-Phe-Leu-PyrS2-3Thi-BztA-Leu-NH2] | 57 | > 20000
CC(=O)N1CCC[C@]12CC=CCCCC1(CCCC=CCCCOC(=O)N3CC[C@@](C(=O)N[C@@H](Cc4ccsc4)C(=O)N[C@@H](Cc4csc5ccccc45)C(=O)N[C@@H](CC(C)C)C(N)=O)(C3)NC(=O)[C@H]([C@@H](C)O)NC(=O)[C@H](Cc3ccccc3)NC(=O)[C@H](C)NC(=O)[C@H](CCCCNC(C)C)NC(=O)[C@H](CN(CC(=O)O)CC(F)(F)F)NC(=O)[C@H](CC(=O)O)NC1=O)NC(=O)[C@H](CC(C)(C)C)NC(=O)[C@H](CC(=O)O)NC2=O (stereo partly drawn) [I-1760, Ac-PL3-Asp-Npg-B5-Asp-TfeGA-iPrLys-Ala-Phe-Thr-PyrS2-3Thi-BztA-Leu-NH2] | 32 | > 20000
CC(=O)N1CCC[C@]12CC=CCCCC1(CCCC=CCCCOC(=O)N3CC[C@@](C(=O)N[C@@H](Cc4ccsc4)C(=O)N[C@@H](Cc4csc5ccccc45)C(=O)N[C@@H](Cc4ccccc4)C(N)=O)(C3)NC(=O)[C@H](CC(C)C)NC(=O)[C@H](Cc3ccccc3)NC(=O)[C@H](C)NC(=O)[C@H](CCCCNC(C)C)NC(=O)[C@H](CN(CC(=O)O)CC(F)(F)F)NC(=O)[C@H](CC(=O)O)NC1=O)NC(=O)[C@H](CC(C)(C)C)NC(=O)[C@H](CC(=O)O)NC2=O (stereo partly drawn) [I-1761, Ac-PL3-Asp-Npg-B5-Asp-TfeGA-iPrLys-Ala-Phe-Leu-PyrS2-3Thi-BztA-Phe-NH2] | 39 | > 20000
CC(=O)N1CCC[C@]12CC=CCCCC1(CCCC=CCCCOC(=O)N3CC[C@@](C(=O)N[C@@H](Cc4ccsc4)C(=O)N[C@@H](Cc4csc5ccccc45)C(=O)N[C@@H](Cc4ccccc4)C(N)=O)(C3)NC(=O)[C@H]([C@@H](C)O)NC(=O)[C@H](Cc3ccccc3)NC(=O)[C@H](C)NC(=O)[C@H](CCCCNC(C)C)NC(=O)[C@H](CN(CC(=O)O)CC(F)(F)F)NC(=O)[C@H](CC(=O)O)NC1=O)NC(=O)[C@H](CC(C)(C)C)NC(=O)[C@H](CC(=O)O)NC2=O (stereo partly drawn) [I-1762, Ac-PL3-Asp-Npg-B5-Asp-TfeGA-iPrLys-Ala-Phe-Thr-PyrS2-3Thi-BztA-Phe-NH2] | 13 | > 20000
CC(=O)N1CCC[C@]12CC=CCCCC1(CCCC=CCCCOC(=O)N3CC[C@@](C(=O)N[C@@H](Cc4ccsc4)C(=O)N[C@@H](Cc4csc5ccccc45)C(=O)N[C@H](C(N)=O)C(C)C)(C3)NC(=O)[C@H](CC(C)C)NC(=O)[C@H](Cc3ccccc3)NC(=O)[C@H](C)NC(=O)[C@H](CCCCNC(C)C)NC(=O)[C@H](CN(CC(=O)O)CC(F)(F)F)NC(=O)[C@H](CC(=O)O)NC1=O)NC(=O)[C@H](CC(C)(C)C)NC(=O)[C@H](CC(=O)O)NC2=O (stereo partly drawn) [I-1763, Ac-PL3-Asp-Npg-B5-Asp-TfeGA-iPrLys-Ala-Phe-Leu-PyrS2-3Thi-BztA-Val-NH2] | 52 | > 20000
CC(=O)N1CCC[C@]12CC=CCCCC1(CCCC=CCCCOC(=O)N3CC[C@@](C(=O)N[C@@H](Cc4ccsc4)C(=O)N[C@@H](Cc4csc5ccccc45)C(=O)N[C@H](C(N)=O)C(C)C)(C3)NC(=O)[C@H]([C@@H](C)O)NC(=O)[C@H](Cc3ccccc3)NC(=O)[C@H](C)NC(=O)[C@H](CCCCNC(C)C)NC(=O)[C@H](CN(CC(=O)O)CC(F)(F)F)NC(=O)[C@H](CC(=O)O)NC1=O)NC(=O)[C@H](CC(C)(C)C)NC(=O)[C@H](CC(=O)O)NC2=O (stereo partly drawn) [I-1764, Ac-PL3-Asp-Npg-B5-Asp-TfeGA-iPrLys-Ala-Phe-Thr-PyrS2-3Thi-BztA-Val-NH2] | 23 | > 20000
CC(=O)N1CCC[C@]12CCCCCCC1(CCCCCCCCOC(=O)N3CC[C@@](C(=O)N[C@@H](Cc4ccsc4)C(=O)N[C@@H](Cc4csc5ccccc45)C(=O)N[C@@H](Cc4ccccc4)C(N)=O)(C3)NC(=O)[C@H]([C@@H](C)O)NC(=O)[C@H](Cc3ccccc3)NC(=O)[C@H](C)NC(=O)[C@H](CCCCNC(C)C)NC(=O)[C@H](CN(CC(=O)O)CC(F)(F)F)NC(=O)[C@H](CC(=O)O)NC1=O)NC(=O)[C@H](CC(C)(C)C)NC(=O)[C@H](CC(=O)O)NC2=O (stereo partly drawn) [I-1768, Ac-PL3-Asp-Npg-B5-Asp-TfeGA-iPrLys-Ala-Phe-Thr-PyrS2-3Thi-BztA-Phe-NH2] | 69 | > 20000
CC(=O)N1CCC[C@]12CCCCCCC1(CCCCCCCCOC(=O)N3CC[C@@](C(=O)N[C@@H](Cc4ccsc4)C(=O)N[C@@H](Cc4csc5ccccc45)C(=O)N[C@H](C(N)=O)C(C)C)(C3)NC(=O)[C@H]([C@@H](C)O)NC(=O)[C@H](Cc3ccccc3)NC(=O)[C@H](C)NC(=O)[C@H](CCCCNC(C)C)NC(=O)[C@H](CN(CC(=O)O)CC(F)(F)F)NC(=O)[C@H](CC(=O)O)NC1=O)NC(=O)[C@H](CC(C)(C)C)NC(=O)[C@H](CC(=O)O)NC2=O (stereo partly drawn) [I-1770, Ac-PL3-Asp-Npg-B5-Asp-TfeGA-iPrLys-Ala-Phe-Thr-PyrS2-3Thi-BztA-Val-NH2] | 175 | > 20000
CC(=O)N1CCC[C@]12CC=CCCCC1(CCCC=CCCCOC(=O)N3CC[C@@](C(=O)N[C@@H](Cc4ccsc4)C(=O)N[C@@H](Cc4csc5ccccc45)C(=O)N[C@@H](CCC(N)=O)C(N)=O)(C3)NC(=O)[C@H](CC(C)C)NC(=O)[C@H](Cc3ccccc3)NC(=O)[C@H](C)NC(=O)[C@H](C)NC(=O)[C@H](CN(CC(=O)O)CC(F)(F)F)NC(=O)[C@H](CC(=O)O)NC1=O)NC(=O)[C@H](CCC(C)(C)C)NC(=O)[C@H](CC(=O)O)NC2=O (stereo partly drawn) [I-1772, Ac-PL3-Asp-Npa-B5-Asp-TfeGA-Ala-Ala-Phe-Leu-PyrS2-3Thi-BztA-Gln-NH2] | 14 | 6800
